pEC50: −log10 of the molar value. Inconclusive results are not listed. Calls of active or inactive are those of the source. No rule for the calls is given here.
The compounds below were run on Chlamydomonas reinhardtii, Nile Red lipid fluorescence, 72 h (assay: algal triacylglycerol accumulation inducers, dose response, qHTS, Chlamydomonas reinhardtii (AID 1159536)).

Question: How did the pEC50 turn out when `O=S(=O)(c1ccc(F)cc1)N1CCN(C2CCCCC2)CC1` was run?
Answer: 4.99

Question: `CCc1ccc(CN2CCN(CC)CC2)cc1` was tested. Which pEC50 did it give?
Answer: 5.33

Question: `O=[N+]([O-])c1ccc(OCCCCN2CCOCC2)cc1` was tested. Which pEC50 did it give?
Answer: 4.85

Question: Which EC50 does the source give for `Cc1ccc(NC(=O)CC(C)C)c(NC(=O)CC(C)C)c1` here?
Answer: 7.89 µM (inactive)

Question: How did the pEC50 turn out when `c1ccc(N2CCN(Cc3ccsc3)CC2)cc1` was run?
Answer: 6.19

Question: With `COc1cccc(N2CCN(Cc3ccc([N+](=O)[O-])cc3)CC2)c1` as the compound, how does the pEC50 read?
Answer: 6.18

Question: `Cc1ccc(C(C)C)cc1OCCOCCN1CCOCC1` was tested. Which pEC50 did it give?
Answer: 5.66

Question: How did the pEC50 turn out when `Clc1ccc(N2CCN(Cc3ccsc3)CC2)cc1` was run?
Answer: 5.90

Question: `CN(CC(O)COc1ccc(F)cc1)C1CCCCC1` (centres undefined) was tested. Which pEC50 did it give?
Answer: 4.95

Question: How did the pEC50 turn out when `C=CCn1c(SCC(=O)NCCc2ccccc2)nnc1-c1ccc(Cl)cc1Cl` was run?
Answer: 5.39

Question: With `C(=C\c1ccccc1)/CN1CCN(CC2CCCCC2)CC1` as the compound, how does the pEC50 read?
Answer: 6.19

Question: `CCc1cccc(OCC(=O)Nc2cc(OC)c(OC)cc2C(=O)O)c1` was tested. Which pEC50 did it give?
Answer: 5.86

Question: With `CCSc1ccc(C(=O)Nc2ccc(Cc3ccncc3)cc2)cc1[N+](=O)[O-]` as the compound, how does the pEC50 read?
Answer: 5.58

Question: `COc1ccc(OC)c(CN2CCN(Cc3ccc([N+](=O)[O-])cc3)CC2)c1` was tested. Which pEC50 did it give?
Answer: 5.87

Question: With `O=[N+]([O-])c1ccc(CN2CCN(C3CCCC3)CC2)cc1` as the compound, how does the pEC50 read?
Answer: 7.17

Question: With `COc1ccccc1N1CCN(C2CCN(Cc3cccc(C)c3)CC2)CC1` as the compound, how does the pEC50 read?
Answer: 4.98

Question: For `CCc1ccc(CN2CCN(c3ccccc3C)CC2)cc1`, which EC50 is on record?
Answer: 1.33 µM (inactive)

Question: `Cc1ccc(C)c(N2CCN(C3CCc4ccccc4C3)CC2)c1` (centres undefined) was tested. Which pEC50 did it give?
Answer: 4.78

Question: Which EC50 does the source give for `Cc1ccc(CN2CCC(C(=O)N3CCN(c4ccccc4F)CC3)CC2)o1` here?
Answer: 7.9 µM (inactive)

Question: With `Clc1ccc(OCCOCCN2CCOCC2)c(Br)c1` as the compound, how does the pEC50 read?
Answer: 5.10

Question: `OC(COc1ccccc1Br)CN1CCCCC1` (centres undefined) was tested. Which pEC50 did it give?
Answer: 5.12

Question: For `Oc1ccccc1CNCCC12CC3CC(CC(C3)C1)C2`, which EC50 is on record?
Answer: 2.49 µM (inactive)

Question: With `O=C(Nc1ccc(Cc2ccncc2)cc1)c1ccc([N+](=O)[O-])cc1Cl` as the compound, how does the EC50 read?
Answer: 1.21 µM (inactive)

Question: `Cc1ccc(CN2CCN(c3ccc(F)cc3)CC2)cc1` was tested. Which pEC50 did it give?
Answer: 8.36

Question: `C=CCc1cccc(C)c1OCCCN1CCN(C)CC1` was tested. Which pEC50 did it give?
Answer: 5.71

Question: How did the EC50 turn out when `O=C(CN1CCCCC1)Nc1ncc(Cc2ccc(F)cc2)s1` was run?
Answer: 0.0585 µM (inactive)

Question: Which EC50 does the source give for `CCN(CC)c1cc(C)nc(N)n1` here?
Answer: 2.53 µM (inactive)

Question: With `Clc1ccc(OCCOCCN2CCCC2)c(Br)c1` as the compound, how does the pEC50 read?
Answer: 5.59

Question: How did the EC50 turn out when `Cc1c(NC(=O)COc2ccc(Br)cc2)cccc1[N+](=O)[O-]` was run?
Answer: 1.37 µM (inactive)

Question: With `CN1CCN(CCCOc2cc(Cl)ccc2Cl)CC1` as the compound, how does the pEC50 read?
Answer: 4.85

Question: `CC1CCC(N2CCN(Cc3ccccc3)CC2)CC1` (centres undefined) was tested. Which pEC50 did it give?
Answer: 5.25

Question: `COc1ccccc1C(=O)N1CCN(C(=O)C(c2ccccc2)c2ccccc2)CC1` was tested. Which EC50 did it give?
Answer: 5.62 µM (inactive)

Question: How did the pEC50 turn out when `Cc1ccc(OCCCn2ccnc2)c(Br)c1` was run?
Answer: 5.90

Question: With `CC(=O)c1nc2cc([N+](=O)[O-])ccc2n1Cc1ccccc1` as the compound, how does the EC50 read?
Answer: 10 µM (inactive)

Question: With `CN1CCN(CCCOc2ccc(Br)cc2)CC1` as the compound, how does the pEC50 read?
Answer: 5.01

Question: With `COc1ccc(OCCCN2CCCC(C)C2)cc1` (centres undefined) as the compound, how does the pEC50 read?
Answer: 4.90

Question: With `CN(CCC#N)C12CC3CC(CC(C3)C1)C2` as the compound, how does the pEC50 read?
Answer: 5.06

Question: With `CN(C)c1ccc(NC(=O)Nc2ccc3nc(-c4ccccn4)c(-c4ccccn4)nc3c2)cc1` as the compound, how does the pEC50 read?
Answer: 5.88

Question: With `O=C(c1ccc([N+](=O)[O-])cc1)N1CCN(CC2CC3C=CC2C3)CC1` (centres undefined) as the compound, how does the pEC50 read?
Answer: 5.22

Question: For `N#Cc1c(-n2ncnc2-c2cccnc2)sc2c1CCCCC2`, which EC50 is on record?
Answer: 2.47 µM (inactive)

Question: How did the pEC50 turn out when `Cc1ccccc1N1CCN(Cc2ccc(F)cc2)CC1` was run?
Answer: 5.87

Question: `COc1cc2c(cc1OC)CN(Cc1ccc(F)cc1)CC2` was tested. Which pEC50 did it give?
Answer: 5.00

Question: `O=C(NCCc1ccc(Cl)cc1)C(=O)Nc1nccs1` was tested. Which EC50 did it give?
Answer: 10.2 µM (inactive)

Question: `Fc1ccccc1N1CCN(CC2CCCCC2)CC1` was tested. Which pEC50 did it give?
Answer: 4.98

Question: How did the pEC50 turn out when `Cc1ccc(OCC(O)CN(C)C2CCCCC2)cc1C` (centres undefined) was run?
Answer: 5.35

Question: `O=C(Nc1ccc([N+](=O)[O-])cc1)c1c(F)c(F)c(F)c(F)c1F` was tested. Which EC50 did it give?
Answer: 1.36 µM (inactive)

Question: With `CC1CCCN(C2CCN(S(=O)(=O)c3ccc(F)cc3)CC2)C1` (centres undefined) as the compound, how does the pEC50 read?
Answer: 4.88

Question: How did the pEC50 turn out when `Cc1ccc(CN(C)C2CCN(C)CC2)s1` was run?
Answer: 4.99

Question: With `C1=CC2CC1CC2CN1CCN(C2CCC(c3ccccc3)CC2)CC1` (centres undefined) as the compound, how does the pEC50 read?
Answer: 5.84

Question: `O=[N+]([O-])c1ccc(CN2CCN(Cc3ccccc3)CC2)cc1` was tested. Which pEC50 did it give?
Answer: 5.20

Question: How did the pEC50 turn out when `O=C(CN1CCCCC1)NCC12CC3CC(CC(C3)C1)C2` was run?
Answer: 5.03

Question: `Cc1cc(OCCN2CCN(C)CC2)ccc1C(C)C` was tested. Which pEC50 did it give?
Answer: 5.59

Question: How did the pEC50 turn out when `COc1cc(C)c(CN2CCCN(C)CC2)cc1C` was run?
Answer: 4.99

Question: `Cc1cccc(-c2noc(COc3ccc(Br)cc3)n2)c1` was tested. Which EC50 did it give?
Answer: 9.11 µM (inactive)

Question: `Cc1ccc(C(=O)Nc2ccc(Cl)cc2C)cc1C` was tested. Which EC50 did it give?
Answer: 16.6 µM (inactive)

Question: Which EC50 does the source give for `CC(=O)Nc1ccc(S(=O)(=O)Nc2cc([N+](=O)[O-])ccc2C)cc1` here?
Answer: 3.21 µM (inactive)

Question: With `c1ccc(CCN2CCN(c3ccccc3)CC2)cc1` as the compound, how does the pEC50 read?
Answer: 6.80

Question: With `CC(C)=CCC[C@H](C)CCN1CCN(C)CC1` as the compound, how does the pEC50 read?
Answer: 5.00

Question: `CN1CCN(CCOc2ccc(C(C)(C)c3ccccc3)cc2)CC1` was tested. Which EC50 did it give?
Answer: 2.37 µM (inactive)

Question: Which EC50 does the source give for `Cc1c(C(=O)Nc2ccc(F)c(F)c2)cccc1[N+](=O)[O-]` here?
Answer: 17.5 µM (inactive)

Question: With `Cc1ccc(C(=O)Nc2ccccc2C(=O)NC(C)C)cc1[N+](=O)[O-]` as the compound, how does the EC50 read?
Answer: 0.635 µM (inactive)

Question: With `C(=C\c1ccccc1)/CN1CCN(C2C3CC4CC(C3)CC2C4)CC1` (centres undefined) as the compound, how does the pEC50 read?
Answer: 5.40

Question: With `CCC1CCC(N2CCN(CC)CC2)CC1` (centres undefined) as the compound, how does the pEC50 read?
Answer: 5.60

Question: `Nc1ccc(F)cc1C(=O)c1ccccc1` was tested. Which pEC50 did it give?
Answer: 5.15
